Assay results reported in patent US20250270579A1, “PLANTS WITH ALTERED ROOT AND SHOOT ARCHITECTURE AND METHODS FOR OBTAINING AND USING SAME” (IOWA STATE UNIVERSITY RESEARCH FOUNDATION, INC., priority 2024, published 2025).

Key:
maize primary roots [1] = experiment: Proteomic profiling of maize roots with and without auxin treatment; assay type: in vivo, Zea mays; settings: 10 μM IAA
Method: For proteomics analysis, W22 and pils6-1 kernels were surface sterilized and planted in rolled towels as described above. Two days after planting, ungerminated kernels were removed from the assay. Five-day-old seedlings were removed from the rolled towels and floated on 0.5×LS media supplemented with 10 μM IAA in 0.5×LS or an equal volume of 95% ethanol in 0.5×LS for 1 hour. For each biological replicate, total root tissue from 5 seedlings was excised using a scalpel and pooled prior to flash freezing in liquid nitrogen. Three biological replicates were generated per genotype and treatment.
Proteomics. Protein extraction and peptide generation. Protein extraction and peptide digestion was performed as previously described (Song et al., “Heterotrimeric G-Protein-Dependent Proteome and Phosphoproteome in Unstimulated Arabidopsis Roots,” Proteomics 18: e1800323 (2018), which is hereby incorporated by reference in its entirety). Briefly, total protein was extracted from […] of 5-day-old primary root tissue (W22 and pils6-1) using the phenol-FASP method as previously detailed (Song et al., “Assessment and Refinement of Sample Preparation Methods for Deep and Quantitative Plant Proteome Profiling,” Proteomics 18: e1800220 (2018); Song et al., “Quantitative Profiling of Protein Abundance and Phosphorylation State in Plant Tissues Using Tandem Mass Tags” in Plant Proteomics: Methods and Protocols, Methods in Molecular Biology., J. V. Jorrin-Novo, L. Valledor, M. A. Castillejo, M.-D. Rey, Eds., pp. 147-156 (Springer US, 2020), each of which is hereby incorporated by reference in its entirety). […] Peptide amounts were quantified using the Pierce BCA Protein assay kit […]

maize primary roots [2] = experiment: Auxin response assay (rolled towel), primary root length; assay type: in vivo, Zea mays; settings: pils6-1 and pils6-3 roots compared to W22 and B73, 10 μM IAA
Method: Auxin response assays were performed using the rolled towel assay as previously described (Draves, “Maize Seedling Growth and Hormone Response Assays Using the Rolled Towel Method,” Current Protocols 2: e562 (2022), which is hereby incorporated by reference in its entirety) using 20-40 biological replicates per genotype and treatment. Maize kernels were surface sterilized with 6% bleach and planted on germination paper and placed vertically in a 2-L beaker with 600 mL of 0.5×Linsmaier and Skoog (LS) media. Seedlings were grown for 3 days after germination (DAG) and then treated with 10 μM indole-3-acetic acid (IAA) or an equal volume 95% ethanol for 7 additional days.

ZmPILS6 = experiment: Auxin transport assay in yeast expressing ZmPILS6; assay type: cell-based, Zea mays; settings: yeast expressing ZmPILS6 compared to empty vector control
Method: Auxin transport assays in yeast. Transport assays of radiolabeled indole-3-acetic acid (^3H-IAA) were performed as previously described (Michniewicz, et al., “Transporter of IBA1 Links Auxin and Cytokinin to Influence Root Architecture,” Developmental Cell 50:599-609.e4 (2019), which is hereby incorporated by reference in its entirety). Briefly, pCC13 was transformed into Saccharomyces cerevisiae strain JBY575. Single yeast colonies were grown in liquid-URA selective media overnight at 30° C. Yeast were resuspended in 0.1M MES (pH 4.6) with 2% dextrose to an OD600 of 5. 100 μL of resuspended cells were added to a 1.5 mL Eppendorf tube and added 100 μL of 50 nM 3H-IAA and incubated at RT for 30 minutes. Yeast cells were centrifuged for 15 seconds before removing the supernatant and washing 3 times with MES solution. Cells were resuspended in 100 μL of MES buffer and ^3H-IAA was measured using a scintillation counter. For each plasmid expressing yeast, 12 biological replicates were statistically analyzed using a t test.

maize primary roots [3] = experiment: In vivo auxin accumulation assay in dissected primary roots; design: species or system Zea mays
Method: In vivo auxin transport assays. Auxin accumulation assays were performed as previously described (Strader and Bartel, “The Arabidopsis PLEIOTROPIC DRUG RESISTANCE8/ABCG36 ATP Binding Cassette Transporter Modulates Sensitivity to the Auxin Precursor Indole-3-Butyric Acid,” The Plant Cell 21:1992-2007 (2009), which is hereby incorporated by reference in its entirety). […] Sections were equilibrated in 40 μL of uptake buffer (20 mM MES, 10 mM sucrose, and 0.5 mM CaSO4, pH 5.6) for 30 minutes at room temperature (RT). 40 μL of 50 nM 3H-IAA was added to each sample and incubated at RT for 1 hour. Samples were rinsed 3 times with […] of uptake buffer. 3H-IAA in tissue samples was measured using a scintillation counter as previously described (Strader and Bartel, “The Arabidopsis PLEIOTROPIC DRUG RESISTANCE8/ABCG36 ATP Binding Cassette Transporter Modulates Sensitivity to the Auxin Precursor Indole-3-Butyric Acid,” The Plant Cell 21:1992-2007 (2009), which is hereby incorporated by reference in its entirety). Samples were moved to scintillation vials containing CytoScint (MP Biomedicals) and disintegrations per minute (DPM) were measured using a scintillation counter (Beckman Coulter LS-6500).

O=C(O)Cc1c[nH]c2ccccc12 [IAA, indole-3-acetic acid]
proteins with altered abundance in response to IAA treatment (maize primary roots [1]; W22 roots, 1 hour): 178 proteins | proteins auxin-induced in W22 that are auxin-repressed in pils6-1 (maize primary roots [1]; W22 vs pils6-1 roots): 11 proteins | auxin-responsive proteins (maize primary roots [1]; pils6-1 roots, 1 hour): 9 proteins | sensitivity of primary root length to exogenous IAA (maize primary roots [2]): less sensitive

O=C(O)Cc1c[nH]c2ccccc12 [3H-IAA]
3H-IAA accumulation in yeast cells (ZmPILS6): significant decrease | 3H-IAA accumulation in the elongation zone (maize primary roots [3]; pils6-1 roots (absence of ZmPILS6) compared to W22): hyperaccumulates | 3H-IAA accumulation in the stele (maize primary roots [3]; pils6-1 roots compared to W22): hypo-accumulates
